System: Haemonchus contortus
Test: Method A: screening against Haemonchus contortus, L1 larvae in microtitre plate
Conditions: 96 h, 4 days assessment, read-out: motility inhibition; for inhibition at 0.01 ppm: test concentration 0.01 ppm; for inhibition at 0.15 ppm: test concentration 0.15 ppm; for inhibition at 0.0025 ppm: test concentration 0.0025 ppm; for inhibition at 0.04 ppm: test concentration 0.04 ppm
Description: Method A: Screening Method to Test Activity of Compounds Against Haemonchus contortus.

`CCOc1c2ccc(Cl)cc2nn1CC(C)(C#N)NC(=O)c1ccc(OC(F)(F)F)cc1` (stereo not shown) [Compound 2.027, N-[2-(6-Chloro-3-ethoxy-2H-indazol-2-yl)-1-cyano-1-methylethyl]-4-trifluoromethoxybenzamide] gave an inhibition at 0.01 ppm of at least 90%.

`CC(C#N)(Cn1nc2ccc(Cl)cc2n1)NC(=O)c1ccc(C(F)(F)F)cc1` (stereo not shown) [Compound 1.002, N-[2-(5-Chloro-2H-benzotriazol-2-yl)-1-cyano-1-methylethyl]-4-trifluoromethylbenzamide] gave an inhibition at 0.15 ppm of at least 90%.

`CC(C#N)(Cn1nc2cccc(Cl)c2n1)NC(=O)c1ccc(Oc2ccccc2)cc1` (stereo not shown) [Compound 1.045, N-[2-(4-Chloro-2H-benzotriazol-2-yl)-1-cyano-1-methylethyl]-4-phenoxybenzamide] was tested, and the inhibition at 0.15 ppm was at least 90%.

`CC(C#N)(Cn1nc2cc(C(F)(F)F)cc(C#N)c2n1)NC(=O)c1ccc(OC(F)(F)F)cc1` (stereo not shown) [Compound 1.054, N-[1-Cyano-2-(4-cyano-6-trifluoromethyl-2H-benzotriazol-2-yl)-1-methylethyl]-4-trifluoromethoxybenzamide] gave an inhibition at 0.15 ppm of at least 90%.

`COc1c2ccc(Br)cc2nn1CC(C)(C#N)NC(=O)c1ccc(OC(F)(F)F)cc1` (stereo not shown) [Compound 2.023, N-[2-(6-Bromo-3-methoxy-2H-indazol-2-yl)-1-cyano-1-methylethyl]-4-trifluoromethoxybenzamide] gave an inhibition at 0.0025 ppm of at least 90%.

`Cc1cc(Cl)c(C)c2nn(CC(C)(C#N)NC(=O)c3ccc(OC(F)(F)F)cc3)nc12` (stereo not shown) [Compound 1.092, N-[2-(5-Chloro-4,7-dimethyl-2H-benzotriazol-2-yl)-1-cyano-1-methylethyl]-4-trifluoromethoxybenzamide] gave an inhibition at 0.01 ppm of at least 90%.

In the case of `CC(C#N)(Cn1nc2cc(Cl)cc(C(F)CF)c2n1)NC(=O)c1ccc(OC(F)(F)F)cc1` (stereo not shown) [Compound 1.078, N-{2-[6-Chloro-4-(1,2-difluoroethyl)-2H-benzotriazol-2-yl]-1-cyano-1-methyl-ethyl}-4-trifluoromethoxybenzamide], the inhibition at 0.04 ppm is reported as at least 90%.

In the case of `CC(C#N)(Cn1cc2ccc(Cl)c(Cl)c2n1)NC(=O)c1ccc(OC(F)(F)F)cc1` (stereo not shown) [Compound 2.045, N-[1-Cyano-2-(6,7-dichloro-2H-indazol-2-yl)-1-methylethyl]-4-trifluoromethoxybenzamide], the inhibition at 0.0025 ppm is reported as at least 90%.

With `C=Cc1cc(Cl)cc2nn(CC(C)(C#N)NC(=O)c3ccc(OC(F)(F)F)cc3)nc12` (stereo not shown) [Compound 1.075, N-[2-(6-Chloro-4-vinyl-2H-benzotriazol-2-yl)-1-cyano-1-methylethyl]-4-trifluoromethoxybenzamide] the inhibition at 0.04 ppm was at least 90%.

Compound `CC(C#N)(Cn1nc2cc(Cl)ccc2c1Br)NC(=O)c1ccc(OC(F)(F)F)cc1` (stereo not shown) [Compound 2.042, N-[2-(3-Bromo-6-chloro-2H-indazol-2-yl)-1-cyano-1-methylethyl]-4-trifluoromethoxybenzamide] has an inhibition at 0.0025 ppm of at least 90%.

`CCOc1c2cc(Cl)ccc2nn1CC(C)(C#N)NC(=O)c1ccc(OC(F)(F)F)cc1` (stereo not shown) [Compound 2.014, N-[2-(5-Chloro-3-ethoxy-2H-indazol-2-yl)-1-cyano-1-methylethyl]-4-trifluoromethoxybenzamide] showed an inhibition at 0.01 ppm of at least 90%.

In the case of `CC(C#N)(Cn1nc2cc(Cl)cc(Br)c2n1)NC(=O)c1ccc(OC(F)(F)F)cc1` (stereo not shown) [Compound 1.060, N-[2-(4-Bromo-6-chloro-2H-benzotriazol-2-yl)-1-cyano-1-methylethyl]-4-trifluoromethoxybenzamide], the inhibition at 0.04 ppm is reported as at least 90%.

`CC(C#N)(Cn1nc2cc(Cl)ccc2c1Cl)NC(=O)c1ccc(OC(F)(F)F)cc1` (stereo not shown) [Compound 2.044, N-[1-Cyano-2-(3,6-dichloro-2H-indazol-2-yl)-1-methylethyl]-4-trifluoromethoxybenzamide] was tested, and the inhibition at 0.0025 ppm was at least 90%.

`COc1c2ccc([N+](=O)[O-])cc2nn1CC(C)(C#N)NC(=O)c1ccc(OC(F)(F)F)cc1` (stereo not shown) [Compound 2.033, N-[1-Cyano-2-(3-methoxy-6-nitro-2H-indazol-2-yl)-1-methylethyl]-4-trifluoromethoxybenzamide] showed an inhibition at 0.15 ppm of at least 90%.

`CC(C#N)(Cn1nc2cc(Cl)cc(C=O)c2n1)NC(=O)c1ccc(OC(F)(F)F)cc1` (stereo not shown) [Compound 1.079, N-[2-(6-Chloro-4-formyl-2H-benzotriazol-2-yl)-1-cyano-1-methylethyl]-4-trifluoromethoxybenzamide] was tested, and the inhibition at 0.15 ppm was at least 90%.

`CC(C#N)(Cn1nc2cc(Cl)c(Cl)cc2n1)NC(=O)c1ccc(OC(F)(F)F)cc1` (stereo not shown) [Compound 1.010, N-[1-Cyano-2-(5,6-dichloro-2H-benzotriazol-2-yl)-1-methylethyl]-4-trifluoromethoxybenzamide] was tested, and the inhibition at 0.15 ppm was at least 90%.

With `CC(C#N)(Cn1nc2c(Cl)c(Br)c(Cl)c(Br)c2n1)NC(=O)c1ccc(OC(F)(F)F)cc1` (stereo not shown) [Compound 1.088, N-[1-Cyano-2-(4,6-dibromo-5,7-dichloro-2H-benzotriazol-2-yl)-1-methylethyl]-4-trifluoromethoxybenzamide] the inhibition at 0.0025 ppm was at least 90%.

Work on `Cc1c(Cl)cnc2cn(CC(C)(C#N)NC(=O)c3ccc(OC(F)(F)F)cc3)nc12` (stereo not shown) [Compound 3.010, N-[2-(6-Chloro-7-methyl-2H-pyrazolo[4,3-b]pyridin-2-yl)-1-cyano-1-methylethyl]-4-trifluoromethoxybenzamide] yielded an inhibition at 0.04 ppm of at least 90%.

`CC(C#N)(Cn1nc2c(Cl)c(Cl)ccc2c1Cl)NC(=O)c1ccc(OC(F)(F)F)cc1` (stereo not shown) [Compound 2.039, N-[1-Cyano-1-methyl-2-(3,6,7-trichloro-2H-indazol-2-yl)ethyl]-4-trifluoromethoxybenzamide] showed an inhibition at 0.01 ppm of at least 90%.

In the case of `Cc1c2ccc(Cl)cc2nn1CC(C)(C#N)NC(=O)c1ccc(OC(F)(F)F)cc1` (stereo not shown) [Compound 2.050, N-[2-(6-Chloro-3-methyl-2H-indazol-2-yl)-1-cyano-1-methylethyl]-4-trifluoromethoxybenzamide], the inhibition at 0.0025 ppm is reported as at least 90%.

`CC(C#N)(Cn1cc2cc(Cl)cc(Cl)c2n1)NC(=O)c1ccc(Oc2ccccc2)cc1` (stereo not shown) [Compound 2.004, N-[1-Cyano-2-(5,7-dichloro-2H-indazol-2-yl)-1-methylethyl]-4-phenoxybenzamide] was tested, and the inhibition at 0.15 ppm was at least 90%.

Compound `Cc1c2cc(Cl)cc(Cl)c2nn1CC(C)(C#N)NC(=O)c1ccc(OC(F)(F)F)cc1` (stereo not shown) [Compound 2.010, N-[1-Cyano-2-(5,7-dichloro-3-methyl-2H-indazol-2-yl)-1-methylethyl]-4-trifluoromethoxybenzamide] has an inhibition at 0.15 ppm of at least 90%.

Work on `CC(C#N)(Cn1nc2cc(Cl)cc(Cl)c2n1)NC(=O)c1ccc(S(=O)(=O)C(F)(F)F)cc1` (stereo not shown) [Compound 1.025, N-[1-Cyano-2-(4,6-dichloro-2H-benzotriazol-2-yl)-1-methylethyl]-4-trifluoromethylsulfonylbenzamide] yielded an inhibition at 0.15 ppm of at least 90%.

`Cc1cc(Cl)cc2cn(CC(C)(C#N)NC(=O)c3ccc(OC(F)(F)F)cc3)nc12` (stereo not shown) [Compound 2.006, N-[2-(5-Chloro-7-methyl-2H-indazol-2-yl)-1-cyano-1-methylethyl]-4-trifluoromethoxybenzamide] showed an inhibition at 0.04 ppm of at least 90%.

For `CC(C#N)(Cn1nc2cc(Cl)cc(C#N)c2n1)NC(=O)c1ccc(OC(F)(F)F)cc1` (stereo not shown) [Compound 1.067, N-[2-(6-Chloro-4-cyano-2H-benzotriazol-2-yl)-1-cyano-1-methylethyl]-4-trifluoromethoxybenzamide], the inhibition at 0.04 ppm was at least 90%.

Compound `Cc1c(Br)cnc2nn(CC(C)(C#N)NC(=O)c3ccc(OC(F)(F)F)cc3)nc12` (stereo not shown) [Compound 3.003, N-[2-(6-Bromo-7-methyl-2H-[1,2,3]triazolo[4,5-b]pyridin-2-yl)-1-cyano-1-methylethyl]-4-trifluoromethoxybenzamide] has an inhibition at 0.15 ppm of at least 90%.

`COc1c2ccc(C(F)(F)F)cc2nn1CC(C)(C#N)NC(=O)c1ccc(OC(F)(F)F)cc1` (stereo not shown) [Compound 2.025, N-[1-Cyano-2-(3-methoxy-6-trifluoromethyl-2H-indazol-2-yl)-1-methylethyl]-4-trifluoromethoxybenzamide] was tested, and the inhibition at 0.0025 ppm was at least 90%.

With `COc1c2ncc(Cl)c(C)c2nn1CC(C)(C#N)NC(=O)c1ccc(OC(F)(F)F)cc1` (stereo not shown) [Compound 3.008, N-[2-(6-Chloro-3-methoxy-7-methyl-2H-pyrazolo[4,3-b]pyridin-2-yl)-1-cyano-1-methylethyl]-4-trifluoromethoxybenzamide] the inhibition at 0.01 ppm was at least 90%.

In the case of `CC(C#N)(Cn1nc2ccc(Cl)cc2n1)NC(=O)c1ccc(Oc2ccccc2)cc1` (stereo not shown) [Compound 1.032, N-[2-(5-Chloro-2H-benzotriazol-2-yl)-1-cyano-1-methylethyl]-4-phenoxybenzamide], the inhibition at 0.04 ppm is reported as at least 90%.

With `CC(C#N)(Cn1nc2cc(C(F)(F)F)cc(C(F)(F)F)c2n1)NC(=O)c1ccc(OC(F)(F)F)cc1` (stereo not shown) [Compound 1.018, N-[2-(4,6-Bis(trifluoromethyl)-2H-benzotriazol-2-yl)-1-cyano-1-methylethyl]-4-trifluoromethoxybenzamide] the inhibition at 0.15 ppm was at least 90%.

For `CC(C#N)(Cn1nc2cc(Cl)cc(CO)c2n1)NC(=O)c1ccc(OC(F)(F)F)cc1` (stereo not shown) [Compound 1.081, N-[2-(6-Chloro-4-hydroxymethyl-2H-benzotriazol-2-yl)-1-cyano-1-methylethyl]-4-trifluoromethoxybenzamide], the inhibition at 0.15 ppm was at least 90%.

Compound `Cc1ccc2nn(CC(C)(C#N)NC(=O)c3ccc(OC(F)(F)F)cc3)nc2c1` (stereo not shown) [Compound 1.006, N-[1-Cyano-1-methyl-2-(5-methyl-2H-benzotriazol-2-yl)ethyl]-4-trifluoromethoxybenzamide] has an inhibition at 0.15 ppm of at least 90%.

`CC(C#N)(Cn1nc2c(Br)cc(Cl)c(Br)c2n1)NC(=O)c1ccc(OC(F)(F)F)cc1` (stereo not shown) [Compound 1.083, N-[2-(5-Chloro-4,7-dibromo-2H-benzotriazol-2-yl)-1-cyano-1-methylethyl]-4-trifluoromethoxybenzamide] was tested, and the inhibition at 0.0025 ppm was at least 90%.

`COc1c2c(Cl)cc(Cl)cc2nn1CC(C)(C#N)NC(=O)c1ccc(OC(F)(F)F)cc1` (stereo not shown) [Compound 2.021, N-[1-Cyano-2-(4,6-dichloro-3-methoxy-2H-indazol-2-yl)-1-methylethyl]-4-trifluoromethoxybenzamide] gave an inhibition at 0.04 ppm of at least 90%.

From US8088801B2, “Aryloazol-2-yl cyanoethylamino compounds, method of making and method of using thereof” (Merial Limited, priority 2007, dated 2012)
